Laboratory results taken from PubChem BioAssay (NCI).
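Dose response: 5 concentrations. Exposure: 48 h. Format: 96-well plates. Endpoint: linear interpolation; highest concentration if not reached. At the TGI there is no net growth.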

How the values were obtained:
Assay in all cases: inhibition of tumour cell growth, NCI panel, 48 h
MDA-MB-231 breast = test system: MDA-MB-231 breast
CAKI-1 renal = test system: CAKI-1 renal
RPMI-8226 leukemia = test system: RPMI-8226 leukemia
CCRF-CEM leukemia = test system: CCRF-CEM leukemia
U251 CNS = test system: U251 CNS
NCI-H226 lung = test system: NCI-H226 lung
SK-MEL-28 melanoma = test system: SK-MEL-28 melanoma
A498 renal = test system: A498 renal
PC-3 prostate = test system: PC-3 prostate
MDA-MB-435 = test system: MDA-MB-435
HCC-2998 colon = test system: HCC-2998 colon
OVCAR-4 ovarian = test system: OVCAR-4 ovarian
HOP-92 NSCLC = test system: HOP-92 NSCLC
ACHN renal = test system: ACHN renal
HS 578T breast = test system: HS 578T breast
M14 melanoma = test system: M14 melanoma
UACC-62 melanoma = test system: UACC-62 melanoma
OVCAR-8 ovarian = test system: OVCAR-8 ovarian
HCT-15 colon = test system: HCT-15 colon
UO-31 renal = test system: UO-31 renal
UACC-257 melanoma = test system: UACC-257 melanoma
SR leukemia = test system: SR leukemia
T-47D breast = test system: T-47D breast
HT29 colon = test system: HT29 colon
SF-539 CNS = test system: SF-539 CNS
NCI/ADR-RES ovarian = test system: NCI/ADR-RES ovarian
NCI-H460 lung = test system: NCI-H460 lung
SF-268 CNS = test system: SF-268 CNS
OVCAR-3 ovarian = test system: OVCAR-3 ovarian
BT-549 breast = test system: BT-549 breast
HCT-116 colon = test system: HCT-116 colon
COLO 205 colon = test system: COLO 205 colon
SF-295 CNS = test system: SF-295 CNS
786-0 renal = test system: 786-0 renal
SW-620 colon = test system: SW-620 colon
SNB-75 CNS = test system: SNB-75 CNS
LOX IMVI melanoma = test system: LOX IMVI melanoma
NCI-H23 lung = test system: NCI-H23 lung
KM12 colon = test system: KM12 colon
HOP-62 NSCLC = test system: HOP-62 NSCLC
TK-10 renal = test system: TK-10 renal
DU-145 prostate = test system: DU-145 prostate
EKVX NSCLC = test system: EKVX NSCLC
OVCAR-5 ovarian = test system: OVCAR-5 ovarian
MOLT-4 leukemia = test system: MOLT-4 leukemia
SK-MEL-5 melanoma = test system: SK-MEL-5 melanoma
MDA-N = test system: MDA-N
SNB-19 CNS = test system: SNB-19 CNS
SK-OV-3 ovarian = test system: SK-OV-3 ovarian
NCI-H522 lung = test system: NCI-H522 lung
RXF 393 renal = test system: RXF 393 renal
SN12C renal = test system: SN12C renal
K-562 leukemia = test system: K-562 leukemia
HL-60(TB) leukemia = test system: HL-60(TB) leukemia
IGROV1 ovarian = test system: IGROV1 ovarian
SK-MEL-2 melanoma = test system: SK-MEL-2 melanoma
MCF7 breast = test system: MCF7 breast
MALME-3M melanoma = test system: MALME-3M melanoma
A549 NSCLC = test system: A549 NSCLC

Question: For C1=Nc2ccc(cc2)-c2ccc(cc2)N=Cc2ccccc2OCc2cccc(n2)COc2ccccc21, which TGI (MDA-MB-231 breast) is on record?
Answer: > 66.3 µM

Question: What about the TGI (CAKI-1 renal) of the same compound?
Answer: > 100 µM

Question: And the TGI (RPMI-8226 leukemia)?
Answer: > 100 µM

Question: And the TGI (CCRF-CEM leukemia)?
Answer: > 100 µM

Question: What about the TGI (U251 CNS) of the same compound?
Answer: > 42.8 µM

Question: And the TGI (NCI-H226 lung)?
Answer: > 100 µM

Question: And the TGI (SK-MEL-28 melanoma)?
Answer: > 100 µM

Question: And the TGI (A498 renal)?
Answer: > 100 µM

Question: And the TGI (PC-3 prostate)?
Answer: > 100 µM

Question: What about the TGI (MDA-MB-435) of the same compound?
Answer: > 100 µM

Question: What about the TGI (HCC-2998 colon) of the same compound?
Answer: > 100 µM

Question: And the TGI (OVCAR-4 ovarian)?
Answer: > 100 µM

Question: What about the TGI (HOP-92 NSCLC) of the same compound?
Answer: > 60 µM

Question: What about the TGI (ACHN renal) of the same compound?
Answer: > 72.9 µM

Question: And the TGI (HS 578T breast)?
Answer: 47 µM

Question: What about the TGI (M14 melanoma) of the same compound?
Answer: > 100 µM

Question: And the TGI (UACC-62 melanoma)?
Answer: > 100 µM

Question: What about the TGI (OVCAR-8 ovarian) of the same compound?
Answer: > 100 µM

Question: And the TGI (HCT-15 colon)?
Answer: > 100 µM

Question: And the TGI (UO-31 renal)?
Answer: > 100 µM

Question: And the TGI (UACC-257 melanoma)?
Answer: > 100 µM

Question: And the TGI (SR leukemia)?
Answer: > 100 µM

Question: What about the TGI (T-47D breast) of the same compound?
Answer: > 100 µM

Question: And the TGI (HT29 colon)?
Answer: > 100 µM

Question: And the TGI (SF-539 CNS)?
Answer: > 66.3 µM

Question: And the TGI (NCI/ADR-RES ovarian)?
Answer: > 100 µM

Question: And the TGI (NCI-H460 lung)?
Answer: > 100 µM

Question: And the TGI (SF-268 CNS)?
Answer: > 100 µM

Question: And the TGI (OVCAR-3 ovarian)?
Answer: > 100 µM

Question: What about the TGI (BT-549 breast) of the same compound?
Answer: > 95.4 µM

Question: What about the TGI (HCT-116 colon) of the same compound?
Answer: > 100 µM

Question: And the TGI (COLO 205 colon)?
Answer: > 100 µM

Question: What about the TGI (SF-295 CNS) of the same compound?
Answer: > 75.9 µM

Question: And the TGI (786-0 renal)?
Answer: 33.1 µM

Question: What about the TGI (SW-620 colon) of the same compound?
Answer: > 100 µM

Question: What about the TGI (SNB-75 CNS) of the same compound?
Answer: 12.1 µM

Question: And the TGI (LOX IMVI melanoma)?
Answer: > 100 µM

Question: What about the TGI (NCI-H23 lung) of the same compound?
Answer: 45.9 µM

Question: What about the TGI (KM12 colon) of the same compound?
Answer: > 100 µM

Question: What about the TGI (HOP-62 NSCLC) of the same compound?
Answer: 20.1 µM

Question: What about the TGI (TK-10 renal) of the same compound?
Answer: > 93.3 µM

Question: What about the TGI (DU-145 prostate) of the same compound?
Answer: > 100 µM

Question: What about the TGI (EKVX NSCLC) of the same compound?
Answer: > 100 µM

Question: What about the TGI (OVCAR-5 ovarian) of the same compound?
Answer: > 100 µM

Question: What about the TGI (MOLT-4 leukemia) of the same compound?
Answer: > 100 µM

Question: What about the TGI (SK-MEL-5 melanoma) of the same compound?
Answer: > 100 µM

Question: And the TGI (MDA-N)?
Answer: > 100 µM

Question: What about the TGI (SNB-19 CNS) of the same compound?
Answer: 46.4 µM

Question: What about the TGI (SK-OV-3 ovarian) of the same compound?
Answer: > 100 µM

Question: What about the TGI (NCI-H522 lung) of the same compound?
Answer: > 96.5 µM

Question: And the TGI (RXF 393 renal)?
Answer: > 84 µM

Question: What about the TGI (SN12C renal) of the same compound?
Answer: > 100 µM

Question: And the TGI (K-562 leukemia)?
Answer: > 100 µM

Question: What about the TGI (HL-60(TB) leukemia) of the same compound?
Answer: > 100 µM

Question: And the TGI (IGROV1 ovarian)?
Answer: > 100 µM

Question: What about the TGI (SK-MEL-2 melanoma) of the same compound?
Answer: > 76.3 µM

Question: And the TGI (MCF7 breast)?
Answer: > 100 µM

Question: And the TGI (MALME-3M melanoma)?
Answer: > 100 µM

Question: What about the TGI (A549 NSCLC) of the same compound?
Answer: > 100 µM
